# Experimental data taken from US20230157296A1, “METHODS OF REDUCING FUSARIUM CONTAMINATION” (Taminco BV, priority 2020, published 2023).
# Columns and labels:
# [1] = system: F. oxysporum f. sp. cubense (Foc TR4); assay: Panama disease analysis of soil samples after metam sodium field injection; assay type: in vivo, Fusarium oxysporum f. sp. Cubense Tropical Race 4
# Experimental: (§1) Metam Sodium Application. Metam sodium 510 SL (equivalent to 42% w/w) was applied to soil at the following doses: 0 liters per hectare (L/ha), 750 L/ha, 1500 L/ha, 2250 L/ha, 3000 L/ha.
# (§2) Prior to injection, soil was prepared using a rototiller to break the soil structure from 0 cm to 80 cm deep, allowing for the smooth and even injection application by an injection machine. The soil was then leveled and made uniform, and the metam sodium was applied at two depths: 30 cm and 60 cm, using injection methods. The temperature was at a minimum of 10° C. and soil humidity was between 50 and 60% holding capacity, allowing the applied product to transform from metam sodium (liquid) to MITC (gas).
# (§3) The application was made using an injection machine wherein the machine lowered shanks and began moving forward such that the shanks lowered to a depth of 60 cm and injectors applied the metam sodium into the soil. When the injection at 60 cm was complete, the process was repeated for the entire field at 30 cm. The treated soil in the field was then sealed using a packer roller (which was part of the injection machinery, located at the back end of the machine), after each application.
# Soil Analysis. Soil samples were obtained at 20, 40, and 60 cm before application and every 24 hours beginning 48 hours after application, for seven days.
# Plant Pathology Analysis. Soil samples used for Panama Disease and nematode analyses were aseptically isolated in culture medium and incubated for seven days at room temperature. Organisms were identified as follows: 20 grams of composite soil sample was diluted with 40 mL distilled water (dH2O); 1 drop of Tween 20 detergent was added, and the sample mixed. A 1 mL aliquot was taken from the solution and diluted with 9 mL dH2O; three further serial dilutions were made. From each dilution, 100 µL were spread on solid Komada growth medium (Sun et al., Phytopathology 68: 1672-1673, 1978). Growth could be seen 7 days after inoculation.
# Foc TR4 chlamydospores = assay: Efficacy of metam sodium on chlamydospores of Foc TR4 in vitro (colonies on PDA plates); assay type: cell-based, Fusarium oxysporum f. sp. Cubense Tropical Race 4
# Experimental: Foc TR4 chlamydospores were extracted from infested soil and incubated with a dilution series of metam sodium for 5 min and 60 min at room temperature. Thereafter, the samples were diluted 10X to get reduction of the treatment and sufficient dilution of chlamydospores to avoid lack of resolution when grown on plate. Aliquots of 100 µl were plated on PDA plates in duplicate and incubated for 3 days at 25° C. Plates were photographed and scored.
# Cavendish banana plants = assay: Musa field soil injection of metam sodium at 30 cm and 60 cm: banana plant growth and stage; assay type: in vivo
# Experimental: as §1, §2, §3
# Plant Selection and Transplantation. Cavendish banana plants were used for this investigation. In order to avoid plants already contaminated by other soil, all plants were produced in vitro using art-recognized methods. Plants were transplanted into the field 14 days after the final soil reading was taken (21 days after treatment).
# Data Gathering. Data were gathered at monthly intervals beginning three months after banana plants were transplanted. A total of three data collection sessions were conducted. Data including the number of leaves, plant height, and girth size were collected.
# [2] = 750 L/ha, six months after treatment
# [3] = 1500 L/ha, six months after treatment
# [4] = 2250 L/ha, six months after treatment
# [5] = 3000 L/ha, six months after treatment
smiles,measurement,setting,value
"CNC(=S)[S-].[Na+] [metam sodium, sodium N-methyldithiocarbamate]",Panama Disease F. oxysporum f. sp. cubense,"[1]; Day 5, 40 cm, T3 1500 L/ha",-
same,Panama Disease F. oxysporum f. sp. cubense,"[1]; Day 5, 40 cm, T4 2250 L/ha",-
same,Panama Disease F. oxysporum f. sp. cubense,"[1]; Day 5, 40 cm, T5 3000 L/ha",-
same,Panama Disease F. oxysporum f. sp. cubense,"[1]; Day 5, 60 cm, T2 750 L/ha",-
same,Panama Disease F. oxysporum f. sp. cubense,"[1]; Day 5, 60 cm, T3 1500 L/ha",-
same,Panama Disease F. oxysporum f. sp. cubense,"[1]; Day 5, 60 cm, T4 2250 L/ha",-
same,Panama Disease F. oxysporum f. sp. cubense,"[1]; Day 5, 60 cm, T5 3000 L/ha",-
same,Panama Disease F. oxysporum f. sp. cubense,"[1]; Day 6, 20 cm, T2 750 L/ha",-
same,Panama Disease F. oxysporum f. sp. cubense,"[1]; Day 6, 20 cm, T3 1500 L/ha",-
same,Panama Disease F. oxysporum f. sp. cubense,"[1]; Day 6, 20 cm, T4 2250 L/ha",-
same,Panama Disease F. oxysporum f. sp. cubense,"[1]; Day 6, 20 cm, T5 3000 L/ha",-
same,Panama Disease F. oxysporum f. sp. cubense,"[1]; Day 6, 40 cm, T2 750 L/ha",-
same,Panama Disease F. oxysporum f. sp. cubense,"[1]; Day 6, 40 cm, T3 1500 L/ha",-
same,Panama Disease F. oxysporum f. sp. cubense,"[1]; Day 6, 40 cm, T4 2250 L/ha",-
same,Panama Disease F. oxysporum f. sp. cubense,"[1]; Day 6, 40 cm, T5 3000 L/ha",-
same,Panama Disease F. oxysporum f. sp. cubense,"[1]; Day 6, 60 cm, T2 750 L/ha",-
same,Panama Disease F. oxysporum f. sp. cubense,"[1]; Day 6, 60 cm, T3 1500 L/ha",-
same,Panama Disease F. oxysporum f. sp. cubense,"[1]; Day 6, 60 cm, T4 2250 L/ha",-
same,Panama Disease F. oxysporum f. sp. cubense,"[1]; Day 6, 60 cm, T5 3000 L/ha",-
same,Panama Disease F. oxysporum f. sp. cubense,"[1]; Day 7, 20 cm, T2 750 L/ha",-
same,Panama Disease F. oxysporum f. sp. cubense,"[1]; Day 7, 20 cm, T3 1500 L/ha",-
same,Panama Disease F. oxysporum f. sp. cubense,"[1]; Day 7, 20 cm, T4 2250 L/ha",-
same,Panama Disease F. oxysporum f. sp. cubense,"[1]; Day 7, 20 cm, T5 3000 L/ha",-
same,Panama Disease F. oxysporum f. sp. cubense,"[1]; Day 7, 40 cm, T2 750 L/ha",-
same,Panama Disease F. oxysporum f. sp. cubense,"[1]; Day 7, 40 cm, T3 1500 L/ha",-
same,Panama Disease F. oxysporum f. sp. cubense,"[1]; Day 7, 40 cm, T4 2250 L/ha",-
same,Panama Disease F. oxysporum f. sp. cubense,"[1]; Day 7, 40 cm, T5 3000 L/ha",-
same,Panama Disease F. oxysporum f. sp. cubense,"[1]; Day 7, 60 cm, T2 750 L/ha",-
same,Panama Disease F. oxysporum f. sp. cubense,"[1]; Day 7, 60 cm, T3 1500 L/ha",-
same,Panama Disease F. oxysporum f. sp. cubense,"[1]; Day 7, 60 cm, T4 2250 L/ha",-
same,Panama Disease F. oxysporum f. sp. cubense,"[1]; Day 7, 60 cm, T5 3000 L/ha",-
same,soil contamination: Foc TR4 detection,"[1]; any of the treated groups (750-3000 L/ha), any day post application",No Foc TR4 was detected
same,"reducing the number of surviving chlamydospores, measured as growing colonies","Foc TR4 chlamydospores; 100X dilution, prolonged incubation (60 min vs 5 min)",more effective
same,reduction in viability of Foc TR4 chlamydospores,"Foc TR4 chlamydospores; First test, dilutions from 1000 up to 10 X 10^6-fold, 60 min",No significant reduction in viability
same,efficacy on chlamydospores (colonies on PDA plates),"Foc TR4 chlamydospores; Second test, 10X and 100X dilutions",(partially) effective
same,number of chlamydospores that survived,"Foc TR4 chlamydospores; Second test, dilutions of 1000X and more",did not affect
same,efficacy on chlamydospores (colonies on PDA plates),"Foc TR4 chlamydospores; dilution of 10X, incubation time 5 minutes",effective
same,efficacy on chlamydospores (colonies on PDA plates),"Foc TR4 chlamydospores; dilution of 100X, both 5 and 60 minutes",less effective
same,effectiveness against Foc TR4 chlamydospores,"Foc TR4 chlamydospores; in vitro conditions, dependent on high concentrations",effective
same,effect on average girth size of banana plant,Cavendish banana plants; 750 L/ha,~ 1 cm
same,increase in average height of banana plant,Cavendish banana plants; 750 L/ha,~ 5 cm
same,effect on plants reaching bagging stage,Cavendish banana plants; [2],did not have a meaningful effect
same,percent of plants at either shooting or bagging stage,Cavendish banana plants; [2],11%
same,percent of plants at shooting stage,Cavendish banana plants; [2],9%
same,increase in average girth size of banana plant,Cavendish banana plants; 1500-3000 L/ha,4-6 cm
same,increase in average height of banana plant,Cavendish banana plants; 1500-3000 L/ha,20-23 cm
same,percent of plants at either shooting or bagging stage,Cavendish banana plants; [3],28%
same,percent of plants at shooting stage,Cavendish banana plants; [3],10%
same,percent of plants at bagging stage,"Cavendish banana plants; 1500 to 3000 L/ha, six months after treatment",11-19%
same,percent of plants at either shooting or bagging stage,Cavendish banana plants; [4],27%
same,percent of plants at shooting stage,Cavendish banana plants; [4],17%
same,percent of plants at either shooting or bagging stage,Cavendish banana plants; [5],35%
same,percent of plants at shooting stage,Cavendish banana plants; [5],22%
same,leaf increase (average number of leaves per banana plant),Cavendish banana plants; regardless of dose applied,roughly 1.5 fold
